From ChEMBL document CHEMBL5291721, “A preclinical secondary pharmacology resource illuminates target-adverse drug reaction associations of marketed drugs” (Nat Commun, 2023)

How the values were obtained:
[1] = biological target: T1, Muscarinic acetylcholine receptor M1 (Homo sapiens, UniProt P11229)
T1 sequence (P11229 whole entry): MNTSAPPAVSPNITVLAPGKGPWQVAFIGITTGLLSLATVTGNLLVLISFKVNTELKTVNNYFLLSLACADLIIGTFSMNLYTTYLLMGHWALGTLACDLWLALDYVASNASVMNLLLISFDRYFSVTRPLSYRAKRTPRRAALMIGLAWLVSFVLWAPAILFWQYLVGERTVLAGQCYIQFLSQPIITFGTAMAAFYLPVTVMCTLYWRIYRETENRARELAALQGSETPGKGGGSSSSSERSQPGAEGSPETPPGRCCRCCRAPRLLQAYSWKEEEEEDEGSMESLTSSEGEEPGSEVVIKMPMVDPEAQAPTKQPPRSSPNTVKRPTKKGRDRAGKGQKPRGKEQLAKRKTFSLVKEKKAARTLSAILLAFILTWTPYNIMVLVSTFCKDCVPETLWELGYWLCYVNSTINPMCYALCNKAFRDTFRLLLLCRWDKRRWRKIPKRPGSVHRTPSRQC

[2] = biological target: T2, Retinoic acid receptor beta (Homo sapiens, UniProt P10826); assay type: functional, cell-based
T2 sequence (P10826 whole entry): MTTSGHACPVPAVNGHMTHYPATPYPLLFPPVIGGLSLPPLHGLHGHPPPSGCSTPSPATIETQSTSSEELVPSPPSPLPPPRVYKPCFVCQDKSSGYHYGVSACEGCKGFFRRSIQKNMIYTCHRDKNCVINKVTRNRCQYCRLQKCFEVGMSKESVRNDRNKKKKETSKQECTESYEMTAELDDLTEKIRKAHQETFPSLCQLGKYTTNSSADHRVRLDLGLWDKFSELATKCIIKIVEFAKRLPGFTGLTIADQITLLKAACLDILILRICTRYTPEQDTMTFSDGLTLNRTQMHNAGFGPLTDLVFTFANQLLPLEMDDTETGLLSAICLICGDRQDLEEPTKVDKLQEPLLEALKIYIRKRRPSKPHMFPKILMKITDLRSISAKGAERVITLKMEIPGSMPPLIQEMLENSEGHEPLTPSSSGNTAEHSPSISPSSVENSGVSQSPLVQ

[3] = biological target: T2, Retinoic acid receptor beta; assay type: functional, cell-based; remark: listed apart in the source
Note: assay procedure not described here.

Row | AC50 [2] [µM] | AC50 [3] [µM] | SMILES | AC50 [1] [µM]
1 | – | – | Cc1cc2c(cc1CC(=O)c1sccc1S(=O)(=O)Nc1onc(C)c1Cl)OCO2 [SITAXENTAN] | > 30
2 | > 30 | 24 | COc1ccc2c(c1)C(=O)N(CCc1ccc(S(=O)(=O)NC(=O)NC3CCCCC3)cc1)C(=O)C2(C)C [GLIQUIDONE] | –
